Drawing on ChEMBL document CHEMBL3639096, “Bivalent inhibitors of IAP proteins and therapeutic methods using the same” (2014), this text covers IC50 for nine compounds.

Assay [1] deals with Baculoviral IAP repeat-containing protein 2 (Homo sapiens, UniProt Q13490). Kind of assay: (§1) For cIAP-1 BIR3 and cIAP-2 BIR3 assays, a fluorescently labeled Smac mimetic (Smac-2F) was used as the fluorescent probe. The Kd values of Smac-2F to cIAP-1 BIR3 and cIAP-2 BIR3 were determined by monitoring the total fluorescence polarization of mixtures composed with the fluorescent probe at a fixed concentration and proteins with increasing concentrations up to full saturation. Fluorescence polarization values were measured using the Infinite M-1000 plate reader (Tecan U.S., Research Triangle Park, N.C.) in Microfluor 2 96-well, black, round-bottom plates (Thermo Scientific). To each well, 1 nM of SMAC-2F and increasing concentrations of protein were added to a final volume of 125 ul in the assay buffer (100 mM potassium phosphate, pH 7.5). A general note: Fluorescence polarisation rises when a labelled molecule tumbles more slowly, as on binding a larger partner.

Assay [2] has as its target Baculoviral IAP repeat-containing protein 3 (Homo sapiens, UniProt Q13489). The assay is described as §1.
In assay [3] the target is E3 ubiquitin-protein ligase XIAP (Homo sapiens, UniProt P98170). Described as §1.

pIC50: −log10 of the molar value.

In the case of `CN[C@@H](C)C(=O)N[C@H]1CN(C(=O)Nc2ccc(CCc3ccc(NC(=O)N4CC[C@H]5CC[C@@H](C(=O)NC(c6ccccc6)c6ccccc6)N5C(=O)[C@@H](NC(=O)[C@H](C)NC)C4)cc3)cc2)CC[C@H]2CCC(C(=O)NC(c3ccccc3)c3ccccc3)N2C1=O` (some centres not stated), the figures for the pIC50 in assay [1], in assay [2] and in assay [3] were above 6.52, above 6.52 and above 7.52, respectively.
With `CN[C@@H](C)C(=O)N[C@H]1CN(C(=O)Nc2ccc(NC(=O)N3CC[C@H]4CC[C@@H](C(=O)N[C@H]5C[C@@H]5c5ccccc5F)N4C(=O)[C@@H](NC(=O)[C@H](C)NC)C3)cc2)CC[C@H]2CC[C@@H](C(=O)N[C@H]3C[C@@H]3c3ccccc3F)N2C1=O`, the negative-log IC50 (pIC50) in assay [1], in assay [2] and in assay [3] was above 6.00 in each case.
As for `CN[C@@H](C)C(=O)N[C@H]1CN(C(=O)Nc2ccc(NC(=O)N3CC[C@H]4CC[C@@H](C(=O)N[C@H]5CCC[C@H]5c5ccccc5)N4C(=O)[C@@H](NC(=O)[C@H](C)NC)C3)cc2)CC[C@H]2CC[C@@H](C(=O)N[C@H]3CCC[C@H]3c3ccccc3)N2C1=O`, the negative logarithm of the IC50 (pIC50) in assay [1], in assay [2] and in assay [3] was above 6.00 each time.
For `CN[C@@H](C)C(=O)N[C@H]1CN(C(=O)Nc2ccc(NC(=O)N3CC[C@H]4CC[C@@H](C(=O)N[C@H]5C[C@@H]5c5ccc(C(F)(F)F)c(F)c5)N4C(=O)[C@@H](NC(=O)[C@H](C)NC)C3)cc2)CC[C@H]2CC[C@@H](C(=O)N[C@H]3C[C@@H]3c3ccc(C(F)(F)F)c(F)c3)N2C1=O`, the pIC50 in assay [1], in assay [2] and in assay [3] was above 5.52 each time.
For `CN[C@@H](C)C(=O)N[C@H]1CN(C(=O)Nc2ccc(Cc3ccc(NC(=O)N4CC[C@H]5CC[C@@H](C(=O)N[C@H]6C[C@@H]6c6ccccc6)N5C(=O)[C@@H](NC(=O)[C@H](C)NC)C4)cc3)cc2)CC[C@H]2CCC(C(=O)N[C@H]3C[C@@H]3c3ccccc3)N2C1=O` (some centres not stated), the pIC50 is above 5.52 in assay [1], above 5.52 in assay [2] and above 6.00 in assay [3].
On to `CN[C@@H](C)C(=O)N[C@H]1CN(C(=O)NCCCCCCNC(=O)N2CC[C@H]3CC[C@@H](C(=O)N[C@H]4CCC[C@H]4c4ccccc4)N3C(=O)[C@@H](NC(=O)[C@H](C)NC)C2)CC[C@H]2CCC(C(=O)N[C@H]3CCC[C@H]3c3ccccc3)N2C1=O` (some centres not stated), for which the figures for the negative logarithm of the IC50 (pIC50) in assay [1], in assay [2] and in assay [3] were above 5.52, above 5.52 and above 6.00, respectively.
As for `CN[C@@H](C)C(=O)N[C@H]1CN(C(=O)NCCCCCCNC(=O)N2CC[C@H]3CC[C@@H](C(=O)NC4Cc5ccccc5C4)N3C(=O)[C@@H](NC(=O)[C@H](C)NC)C2)CC[C@H]2CCC(C(=O)NC3Cc4ccccc4C3)N2C1=O` (some centres not stated), the values for the pIC50 in assay [1], in assay [2] and in assay [3] were above 5.00, above 5.30 and above 6.00, respectively.
The corresponding values for `CN[C@@H](C)C(=O)N[C@H]1CN(C(=O)NCCCCCCNC(=O)N2CC[C@H]3CC[C@@H](C(=O)NCCc4ccccc4)N3C(=O)[C@@H](NC(=O)[C@H](C)NC)C2)CC[C@H]2CCC(C(=O)NCCc3ccccc3)N2C1=O` (some centres not stated) are above 6.00, above 5.30 and above 6.00.
For the compound `CN[C@@H](C)C(=O)N[C@H]1CN(C(=O)NCCCCCCNC(=O)N2CC[C@H]3CC[C@@H](C(=O)N[C@H]4CC[C@@H]4c4ccccc4)N3C(=O)[C@@H](NC(=O)[C@H](C)NC)C2)CC[C@H]2CCC(C(=O)N[C@H]3CC[C@@H]3c3ccccc3)N2C1=O` (some centres not stated), the pIC50 in assay [1], in assay [2] and in assay [3] was above 6.00 in each case.

By pIC50 is commonly meant −log10 of the IC50, conventionally taken in molar units.
